One series has as its system THP-1 cells. Description: NC on TNFα production by THP-1s in response to TLR agonists (Example 7). It counts as cell-based, human. As to the method: FIG. 32. NC Reduces TNFα Response to Toll 3 Agonist. Macrophages were cultured at a uniform density and allowed to adhere (in the case of BMDMs) or differentiate with PMA (in the case of THP-1s). macrophages were then incubated overnight in NC at a concentration of 50 uM at 37° C. The following day, the BMDMs were stimulated with P(I:C) at 50 ug/mL, 100 ug/mL, or 200 ug/mL for four hours and the THP-1s were stimulated at 200 […]. Supernatants were collected and TNFα concentrations were determined via ELISA.
FIG. 34. TNFα production from THP-1 stimulation. Thp-1s plated at uniform density and incubated in PMA to differentiate and treated with NC overnight. The following day, cells were then treated with FSL at a concentration of 20 ng/ml and 50 ng/ml. After 4 hours, supernatant was collected and the concentration of TNFα was determined via ELISA.
Bone marrow derived macrophages were collected from adult mice (6-8 weeks old). Femurs were obtained and cut with scissors. The connecting muscles were removed and the bones were flushed with PBS. PBS was collected and cells were counted and adjusted to the desired concentrations. Cells were then plated in DMEM supplemented with Macrophage Colony Stimulating Factor (M-CSF) at 10 ng/ml. […] After 7 days the cells were ready for use. […]
Once ready, macrophages were then incubated with NC at a concentration of 50 uM overnight. […] Samples were treated for 4 hours and then Supernatant was then collected and the concentration of TNFα was then determined via the commercially available ELISA MAX Deluxe kit (Biolegend), with measurements reported in pg/mL.
To investigate the effects NC, macrophages were stimulated in vitro with various TLR agonists, and the production of cytokines was measured via ELISA. […] After 4 hours, supernatant was collected and the concentration of TNFα was determined via ELISA.
Further investigation of NC's impact on TLR signaling involved treating BMDMs with the TLR 4 agonist LPS. […] After 4 hours supernatant was collected and concentration of TNFα was measured via ELISA. […]

The nature of series [1]: In vivo toxicity of JE given I.P.: serum ALT and organ histology. The note with it: JE 50 μM twice daily I.P. for 3 or 5 days. As to the method:
To test if JE has any toxicity, we first incubated murine macrophages with JE at different concentrations at 37° C. for two days, and determined viability of the cells. […] Further we injected the JE at 50 μM twice daily via I.P. for 3 or 5 days and then determined ALT levels in sera and examined the morphology in key organs, liver, kidney, spleen, intestines etc.

Structures are written as SMILES.

Regarding `CCCCCCCCCCCCCCCC(=O)N[C@@H](C(=O)O)[C@H](C)O` [NC, N-Palmitoyl-D-Threonine], in the series with THP-1 cells (NC 50 μM overnight, Poly (I:C) 200 mg/ml or 400 mg/mL, 4 hours), the “production and secretion of TNFα” value is listed as “reduced”. Moreover, in the series with THP-1 cells (NC alone, 50 μM overnight), the “production of TNFα” value was “not found to increase”. In the series with THP-1 cells (NC overnight, FSL 20 ng/ml and 50 ng/ml, 4 hours), the “TNFα production in response to TLR 2/6 agonist FSL-1” value was “exhibited inhibitory effects”.

Regarding `CC(=O)O[C@@H]1CC[C@H]2[C@H]3CC[C@H]4CC(F)(F)CC[C@]4(C)[C@H]3CC[C@]12C` [JE, 3,3-Difluoro-5-alpha-androstan-17-beta-yl acetate], in series [1], the “tissue damage in organs by histology (liver, kidney, spleen, intestines)” value was “did not see any tissue damage”. For the same molecule, the “ALT levels in sera” value in series [1] (vs control group) is listed as “no significant higher levels”.

These data come from patent US20250000874A1, “BACTERIAL METABOLITES AND THEIR USE IN REDUCING INFLAMMATION” (LOYOLA UNIVERSITY OF CHICAGO, priority 2023, published 2025).
